Data from the METLIN SMRT retention time set (Domingo-Almenara et al. 2019).

experiment: gradient 5% acetonitrile 3 min, to 50% in 2 min, to 85% in 15 min, held 3 min, 100 µL/min; settings: column: Zorbax Extend-C18 2.1 x 50 mm; eluents: water / acetonitrile, 0.1% formic acid
How it was run: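 Standards, all pure, were combined into mixtures of ~100 molecules and run at 100 μL/min on a Zorbax Extend-C18 column (2.1 × 50 mm, 1.8 μm) with water and acetonitrile, each containing 0.1% formic acid. A coupled quadrupole time-of-flight mass spectrometer operated in positive and negative ionization mode. Retention time values come from computationally picked adduct peaks, each inspected manually.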

Row | SMILES | RP-LC retention time [s]
1 | O=C(Cc1csc2ccccc12)N1CCN(C(=O)Nc2ccccc2Cl)CC1 | 889
2 | Cc1cccc(Oc2nccn3c(=O)n(CC(=O)NCCCc4ccccc4)nc23)c1C | 944
3 | CCN1C(=O)C(C)(C(=O)Nc2cc(C)ccc2C)Oc2cccnc21 (configuration not stated) | 744
4 | COc1ccc(-c2c(C(=O)NCc3cccs3)nc3ccccn23)cc1 | 828
5 | O=C(NCCc1csc(-c2ccccc2)n1)C1CCN(C(=O)c2ccc(F)c(F)c2)CC1 | 816
6 | CCOC(=O)c1ccc(NC(=O)CN2CCC(C)CC2)cc1 | 561
7 | O=C(COc1ccccc1)NCCSc1c[nH]c2ccccc12 | 831
8 | COC(=O)C1=CN(c2ccc(Br)cc2)c2ccccc2S1(=O)=O | 908
9 | COc1ccccc1CN1CCC(CNS(=O)(=O)c2ccc3c(c2)CCCC(=O)N3)CC1 | 566
10 | O=C(CCn1cnc2cc(-c3noc(COc4ccc(Cl)cc4)n3)ccc21)N1CCCC1 | 786
11 | Cc1sc2ncnc(N3CCCCC3)c2c1C(=O)Nc1cc(F)c(F)c(F)c1 | 1230
12 | CCC(=O)N1CCc2c(C(=O)N3CCN(c4ccccc4Cl)CC3)cccc21 | 960
13 | O=C(Cc1nnc(-c2ccsc2)o1)N1CCc2ccccc2C1 | 780
14 | CCn1cc(C(=O)N2CCCc3ccccc32)c2nn(-c3ccccc3)c(=O)c-2c1 | 788
15 | Cc1ccc(-c2nc3n(c2CNC(=O)c2ccco2)CCS3)cc1 | 639
16 | Cc1ccc(NS(=O)(=O)c2ccc3c(c2)C(=O)N(C)c2ncccc2O3)cc1F | 957
17 | O=C(CC1CCCCN1S(=O)(=O)c1ccc(Cl)cc1)NCc1ccco1 (configuration not stated) | 852
18 | CC(C)(C)OC(=O)COC(=O)c1cn(-c2ccc(F)cc2)c(=O)c2ccccc12 | 1140

Row | SMILES | RP-LC retention time [s]
19 | O=C(Cc1ccsc1)NC1CCc2nnc(C3CC3)n2CC1 (configuration not stated) | 594
20 | COc1ccc(CN2CCOC2=O)cc1OC | 649
21 | CC(=O)Nc1ccc(S(=O)(=O)N2CC=C(c3cn(C(C)C)c4ncccc34)CC2)cc1 | 854
22 | CCOC(=O)c1noc2ncnc(N(C)c3cccc(Cl)c3)c12 | 965
23 | O=C(Cn1cnc2nc(N3CCC(C(=O)NC4CC4)CC3)sc2c1=O)NCc1ccc(F)cc1 | 655
24 | CC(C)NC(=O)c1ccc(OCC2CCCN(C(=O)Cc3ccccc3F)C2)cc1 (configuration not stated) | 875
25 | COc1ccccc1-c1nnc(C2CCN(C(=O)c3ccccc3)CC2)o1 | 741
26 | COc1ccc(Nc2nc(C(=O)N3c4ccccc4CC3C)cs2)cc1OC (configuration not stated) | 854
27 | O=C(NCCc1ccccc1)N1CCN(c2nc3cccnc3n(Cc3ccccc3)c2=O)CC1 | 1080
28 | O=C(Cn1ccc2ccc(N3CCOCC3)nc21)N1CCN(c2ccccc2Cl)CC1 | 1060
29 | Cc1csc(-c2cc(S(=O)(=O)Nc3ccc(Cl)cc3)c(C)s2)n1 | 1060
30 | CC(C)Cc1noc(C2(F)CCN(S(=O)(=O)c3cccc(Cl)c3)CC2)n1 | 1190
31 | CC(C)CNC(=O)NCCC1CCN(S(=O)(=O)c2ccccc2)CC1 | 808
32 | Cc1cccc(Cn2c(CN3CCC(C(=O)NC(C)C)CC3)cc3ccccc32)c1 | 737
33 | O=C(CC1CCN(C(=O)Nc2ccc3c(c2)OCO3)CC1)N1CCCCC1 | 712
34 | CCOc1ccc2nc(NS(=O)(=O)c3ccc4c5c(cccc35)C(=O)N4)sc2c1 | 703
35 | CCOc1ccc(CCNC(=O)c2ccc3c(c2)N(CC)C(=O)c2ccccc2O3)cc1OCC | 966

Further lines, results first:

Row | RP-LC retention time [s] | SMILES
36 | 815 | CC(C)c1nnc(-c2ccc(S(=O)(=O)N3CCCC3)o2)o1
37 | 804 | CCN1C(=O)c2c(C(=O)NCc3cccc(Cl)c3)ncn2CC1(C)C(=O)NC1CCCC1 (configuration not stated)
38 | 847 | CCOc1ccc(-c2cc(=O)n(CCCC(=O)Nc3cccc(SC)c3)cn2)cc1
39 | 663 | O=C(NC1CCCCC1)N1CCCC(Cn2cnc3cccnc32)C1 (configuration not stated)
40 | 860 | Cc1nc(-c2noc(-c3ccccc3)n2)cn1CC(=O)N1CCc2ccccc21
41 | 1000 | CCOc1ccc2nc(NC(=O)C3CCCN(c4ncnc5c4nc4n5CCCCC4)C3)sc2c1 (configuration not stated)
42 | 656 | CCOC(=O)C1=C(CN2CCC(C)CC2)NC(=O)NC1c1ccc(C)cc1 (configuration not stated)
43 | 882 | CC(C)CNC(=O)CCn1c(=O)c2ccccc2n2c(=O)n(Cc3ccccc3)nc12
44 | 1080 | Fc1ccc(-c2nc(-c3cn(-c4cccc(F)c4)nn3)no2)cc1
45 | 1080 | C[n+]1ccc(Nc2ccc(NC(=O)c3ccc(Nc4cc[n+](C)c5ccc([N+](=O)[O-])cc45)cc3[N+](=O)[O-])cc2)cc1
46 | 963 | Cc1cc(NS(=O)(=O)c2ccc(-c3nnc(C4CCC4)o3)o2)ccc1F
47 | 633 | Cc1cnc(-c2cccnc2)n1C1CCN(S(=O)(=O)c2ccc3c(c2)OCCO3)C1 (configuration not stated)
48 | 634 | CC1(C)CC(=O)C2=C(C1)N(CCCN1CCOCC1)C(=O)C2(NC(=O)c1ccccc1)C(F)(F)F (configuration not stated)
49 | 731 | CCCS(=O)(=O)N1CCc2ccc(NC(=O)c3cccn(C)c3=O)cc2C1
50 | 741 | CCN1CCn2c(nc3cc(C(=O)NCc4ccc(C(F)(F)F)cc4)ccc32)C1=O
51 | 573 | O=C(NCC1CCN(Cc2ccccc2)CC1)C(=O)Nc1ccc(F)cc1F
52 | 886 | Cc1ccc(NC(=O)Cn2c(=O)n(-c3ccccc3)c(=O)c3c2cc(C)n3C)cc1C
53 | 1200 | CC1CCN(C(=O)c2cccn2Cc2noc(-c3ccc(Cl)cc3)n2)CC1
54 | 967 | COc1ccc(C(=O)Nc2nc(-c3ccc4c(c3)N(C)C(=O)CO4)c(C)s2)cc1
55 | 843 | COCCCNC(=O)NC1CCN(c2nc3cccnc3n(Cc3ccccc3)c2=O)CC1
56 | 1020 | Cc1cccc(NC(=O)CSc2cc(N3CCCC(C)C3)ncn2)c1 (configuration not stated)
57 | 857 | CC(C)C(=O)N1CC(c2nc(-c3ccc(F)cc3)no2)C2(CCOCC2)C1 (configuration not stated)
58 | 671 | CCN(CC)CCCC(C)NC(=O)c1ccc2c(c1)C(=O)c1ccccc1C2=O (configuration not stated)
59 | 736 | CCOC(=O)c1nc(Nc2ccc(OC)c(OC)c2)c2ccccc2n1
60 | 820 | COc1cc(NC(=O)CN2C(=O)CCc3cc(Br)ccc32)cc(OC)c1OC
61 | 1070 | CCn1cc2c3c(cccc31)CN(C(=O)Nc1cc(C)cc(C)c1)CC2

Row | RP-LC retention time [s] | SMILES
62 | 666 | O=C(c1cccs1)N1CCCn2cc(-c3ccccc3F)nc21
63 | 870 | O=C(CN1C(=O)CSc2ccc(C(=O)N3CCCCC3)cc21)NCCC1=CCCCC1
64 | 854 | Cc1cc(C)cc(C(=O)NCc2nn(C)c3ccccc23)c1
65 | 801 | Cc1ccc(NC(=O)N2CCC(n3cnc4c(C)cccc4c3=O)CC2)cc1
66 | 1040 | Cc1ccc2c(c1)N(Cc1ccccc1C)N=C(C(=O)N1CCCCC1)S2(=O)=O
67 | 564 | O=C(Nc1ccc(CN2CCN(c3ccccn3)CC2)cc1)c1ccccc1C(F)(F)F
68 | 736 | COC(=O)C1=CN(C2CC2)c2cc(N3CCOCC3)c(F)cc2S1(=O)=O
69 | 654 | Cc1oc(C2CCN(C(=O)c3ccc(C#N)cc3)CC2)nc1C(=O)N(C)C
70 | 733 | O=C(c1cccs1)N1CCN(c2ccc(=O)n(-c3ccccc3)n2)CC1
71 | 1270 | Cc1cc(C)cc(-c2nnc(Cc3nc(-c4ccc(Br)cc4)no3)o2)c1
72 | 812 | CC(NC(=O)c1ccc(CN2CCN(Cc3ccccc3)C(=O)C2=O)cc1)c1ccccc1 (configuration not stated)
73 | 821 | COC(=O)c1cccc(NC(=O)NC2CCCN2S(=O)(=O)c2ccc(Cl)cc2)c1 (configuration not stated)
74 | 711 | CCN(CC)CCNC(=O)c1cn(C)nc1S(=O)(=O)N1CCN(c2cccc(Cl)c2)CC1
75 | 645 | Cc1ccn2cc(C(=O)NCc3ccc(F)cc3)nc2c1
76 | 590 | CNC(=O)c1nn(-c2ccc(OC)c(OC)c2)c(OC)cc1=O
77 | 557 | Cc1cc(N2CCN(C)CC2)nc(N2CCN(C(=O)c3ccc(Br)cc3)CC2)n1
78 | 864 | O=C(c1cccc(Br)c1)N1CCN(c2cc(-c3ccc(F)cc3)[nH]n2)CC1
79 | 749 | CC(C)[C@H](NC(=O)CNC(=O)OC(C)(C)C)C(=O)N[C@H](C=O)C(C)C
80 | 811 | CCCN1CCN(C(=O)c2ccc(CN3CCN(Cc4ccccc4)C(=O)C3=O)cc2)CC1
81 | 970 | O=c1c2sccc2n(Cc2nc(-c3ccc(F)cc3)no2)c(=O)n1-c1cccc(F)c1
82 | 942 | CC1(C(=O)Oc2ccc(Cl)cc2)Cc2ccccc2C(=O)O1 (configuration not stated)
83 | 570 | Cc1nc(N2CCN(C)CC2)cc(N2CCN(C(=O)c3ccc(Br)o3)CC2)n1
84 | 744 | Cc1noc(-c2nn(C)c3c2CN(C(=O)Nc2cccc(F)c2)CC3)n1
85 | 952 | COC(=O)c1c(NCCN2CCCc3ccccc32)c2cc(F)ccc2[nH]c1=O
86 | 743 | COc1ccc(S(=O)(=O)NCc2cccnc2-c2ccc(C)cc2)cc1Cl
87 | 917 | Cc1oc(C2CCN(S(=O)(=O)CCc3ccccc3)CC2)nc1C(=O)N1CCCC1
